Series [1] concerns A375 melanoma cells. The series is described as follows: cell vitality FACS analysis (region R-1, FSC/SSC), A375 melanoma cells. The class given is cell-based, human. The following applies: A375, Protocol A, about 24 hours, FIG. 7. How it is done:
(§1) To transfer adherent cells (A375 and BxPC-3 cells) after culture, cells are washed twice with PBS. To detach the cells, the enzyme biotase is used according to the manufacturer's instructions. For this purpose, after washing with PBS, the cells are mixed with biotase (5 ml of biotase solution per 75 cm^2 surface of the cell culture bottles) and incubated for 5 min at 37 degrees Celsius, and the biotase is separated by centrifugation. Cells cultivated in suspension (MEC-1 and lymphocytes) were transferred by dilution. The cells are suspended in culture medium and counted, each time 1.5×10^5 cells/cm^2 are seeded in 48-well plates and cultured for between 1.5 and 24 hours at 37 degrees Celsius, 5% CO2. Peptides are pre-diluted from stock solution with culture medium and 200 μl of peptide solution added so that final concentrations of 30 to 500 μM peptide are present in at most 1% (v/v) DMSO. As control solutions, culture medium without peptide (DMSO-containing) in culture medium or etoposide solution is added. After incubating the cells for several hours, the cell supernatant is transferred to a FACS tube for each batch and, after washing the cells with PBS, the wash solution is added. Then the cells are incubated with 200 μl of biotase solution for 10 min, 37° C., the cells with the biotase are also transferred to the FACS tube and the cells are collected by centrifugation for 5 min. The cell pellet is suspended in 500 μl of serum-free culture medium, then 1.5 ml of cold 80% ethanol (ethanol/PBS-80/20, v/v, stored at −20° C.) is added, the FACS tubes sealed and stored at −20 degrees Celsius for 15 to 18 h. Thereafter, the cells are centrifuged for 5 minutes at 120 g, suspended after removal of the supernatant in 2 ml PBS and incubated at 37 degrees Celsius for 30 minutes. After re-centrifugation, the cells are suspended in 0.5 ml DAPI solution and incubated for 15 min at 20 degrees Celsius in the dark. Thereafter, the cells are stored dark for a maximum of four hours in an ice bath, followed by the FACS analysis.
For suspension cells (MEC-1 and lymphocytes/PBMC) and for adherent cells analyzed according to Protocol A, FACS analysis to determine subG1 cell cycle and vital cell fractions was done on a Becton Dickinson LSR Fortessa flow cytometer. The analysis by FACS including subG1 and vital cell analysis according to protocol B was performed with a Cytomics FC 500 MPL flow cytometer from Beckman Coulter.
Changes of the cell form during cell death by apoptosis are documented in the literature (Lizard et al. 1995; Taga et al. 2000; Vermes et al., 2000). The protocols for cell cultivation, treatment and preparation of the cells before flow cytometry is detailed in separate examples. Cell suspensions of cell lines A375, BxPC-3, MEC-1 or of primary lymphocytes (see separate example of lymphocyte preparation) are analyzed by flow cytometry. The data are further analyzed by using the program “Flowing Software 2”. The data of light scattering are drawn in a two-dimensional FSC/SSC plot. Since the position in the FSC/SSC plot of apoptotic cells changes relative to non-apoptotic cells (Vermes et al., 2000), a region (R-1) is drawn representing mainly non-apoptotic cells and excluding cells with both low FSC and low SSC values and excluding cells with high values of FSC and/or SSC (FIG. 1). The regions are individually selected for each cell type (A375, BxPC-3, MEC-1 and primary lymphocytes). The percentage of untreated non-apoptotic cells in the region R-1 relative to total cells is set to 100%, representing 100% vital cells. The fraction (%) of cells in R-1 relative to the total number of cells in case of cell treatment by certain peptides or by cytotoxic drugs results in cell vitality, below 100%, thereby indicating a loss of cell vitality by the treatment. […]
(In general: Flow cytometry measures light scatter and fluorescence of single cells or particles in a stream.)

The subject of series [2] is human peripheral blood mononuclear cells (Lymphocyte, PBMC). The series is described as follows: cell vitality FACS analysis (region R-1), healthy lymphocytes (PBMC). The class given is cell-based. The following applies: Protocol A, 50, 100, 200 μM, about 24 hours per Examples (FIG. 11 legend: about 2 hours). The protocol:
Human lymphocytes are obtained as peripheral blood mononuclear cells (“PBMC”) from whole blood. For this purpose, 15 ml of heparinized whole blood (heparin tube, Sarstedt) were layered on 15 ml Biocoll in LeucoSep tubes and obtained by centrifugation (10 min at 120 g) as the top layer (“lymphocytes”) and so separated from other cells. For induction with peptides, 1×10^6 lymphocytes are seeded into each well of the 48-well plates.
After addition of the peptides diluted in culture medium to the cells (MEC-1 or lymphocytes) in the respective cavity, the cells are cultured for 2 to 4 hours at 37 degrees Celsius and 5% CO2. The cell suspension is centrifuged in centrifuge tubes at 120 g, the cells are suspended in 500 μl serum-free culture medium, then 1.5 ml of cold 80% ethanol (ethanol/PBS-80/20, v/v; stored at −20 degrees Celsius) is added, the FACS tubes sealed and stored at −20 degrees Celsius for a maximum of 18 h. The cells are centrifuged for 5 min at 120 g and suspended in 2 ml PBS, then incubated for 30 min at 37 degrees Celsius. After renewed centrifugation, the cells are suspended in 0.5 ml DAPI solution and incubated for 15 min at 20 degrees Celsius in the dark. Thereafter, the cells are stored dark for a maximum of four hours in an ice bath, then the FACS analysis.
as §1
Changes of the cell form during cell death by apoptosis are documented in the literature (Lizard et al. 1995; Taga et al. 2000; Vermes et al., 2000). The protocols for cell cultivation, treatment and preparation of the cells before flow cytometry is detailed in separate examples. Cell suspensions of cell lines A375, BxPC-3, MEC-1 or of primary lymphocytes (see separate example of lymphocyte preparation) are analyzed by flow cytometry. The data are further analyzed by using the program “Flowing Software 2”. The data of light scattering are drawn in a two-dimensional FSC/SSC plot. […]

Entries after “also recorded” stand apart in the source; their conditions may differ. Non-standard residues stand in square brackets, D forms with d. Residues, ends and D or L forms follow the SMILES beside them.

On to d-k-w-m-v-v-y-f-r-d [SEQID No 39], for which the “decrease of cell vitality, comparison in words” value is on record as “higher apoptosis rate at a concentration of 100 μM as peptide SEQID NO 27” in series [1] (100 μM) and “significantly greater decrease than the peptide of the prior art (Peptide SEQ C1)” in series [1] (any concentration (100, 200, 500 μM)).
Take `CSCC[C@@H](NC(=O)[C@@H](Cc1c[nH]c2ccccc12)NC(=O)[C@@H](CCCCN)NC(=O)[C@H](N)CCCCN)C(=O)N[C@@H](C(=O)N[C@@H](C(=O)N[C@H](Cc1ccc(O)cc1)C(=O)N[C@H](Cc1ccccc1)C(=O)N[C@H](CCCNC(=N)N)C(=O)O)C(C)C)C(C)C` [SEQID No 25, k-k-w-m-v-v-y-f-r] (H-[dK][dK][dW][dM][dV][dV][dY][dF][dR]-OH; N-terminus and C-terminus assumed): the “tolerance by healthy Lymphocyte (PBMC) cells (cell vitality)” value (“tolerance by healthy Lymphocyte” for short) in series [2] was “not so well tolerated by the healthy cells”.
The same measure, in the same setting: with `CSCC[C@@H](NC(=O)[C@@H](Cc1c[nH]c2ccccc12)NC(=O)[C@@H](CCCCN)NC(=O)[C@H](N)CCCCN)C(=O)N[C@@H](C(=O)N[C@@H](C(=O)N[C@H](Cc1ccc(O)cc1)C(=O)N[C@H](Cc1ccccc1)C(=O)N[C@H](CCCNC(=N)N)C(=O)N[C@H](CCCCN)C(=O)O)C(C)C)C(C)C` [SEQID No 27, k-k-w-m-v-v-y-f-r-k] (H-[dK][dK][dW][dM][dV][dV][dY][dF][dR][dK]-OH; N-terminus and C-terminus assumed) the entry was “not remarkably damaged; also recorded: very good tolerated by the healthy cells (low toxic effect)”; with `CSCC[C@@H](NC(=O)[C@@H](Cc1c[nH]c2ccccc12)NC(=O)[C@@H](CCCCN)NC(=O)[C@@H](CCCCN)NC(=O)[C@H](NC(=O)[C@@H](CO)NC(=O)[C@H](N)CCCNC(=N)N)[C@H](C)O)C(=O)N[C@@H](C(=O)N[C@@H](C(=O)N[C@H](Cc1ccc(O)cc1)C(=O)N[C@H](Cc1ccccc1)C(=O)N[C@H](CCCNC(=N)N)C(=O)N[C@H](CCCCN)C(=O)O)C(C)C)C(C)C` [SEQID No 33, r-s-t-k-k-w-m-v-v-y-f-r-k] (H-[dR][dS][dT][dK][dK][dW][dM][dV][dV][dY][dF][dR][dK]-OH; N-terminus and C-terminus assumed), “not remarkably damaged; also recorded: well tolerated”; with `CSCC[C@@H](NC(=O)[C@@H](Cc1c[nH]c2ccccc12)NC(=O)[C@@H](CCCCN)NC(=O)[C@H](N)CCCCN)C(=O)N[C@@H](C(=O)N[C@@H](C(=O)N[C@H](Cc1ccc(O)cc1)C(=O)N[C@H](Cc1ccccc1)C(=O)N[C@H](CCCNC(=N)N)C(=O)N[C@H](CCCCN)C(=O)N[C@H](CCC(=O)O)C(=O)N[C@H](C)C(=O)N[C@H](CCCNC(=N)N)C(=O)O)C(C)C)C(C)C` [SEQID No 32, k-k-w-m-v-v-y-f-r-k-e-a-r] (H-[dK][dK][dW][dM][dV][dV][dY][dF][dR][dK][dE][dA][dR]-OH; N-terminus and C-terminus assumed), “not remarkably damaged”.
Still for that read-out and setting: with `CSCC[C@@H](NC(=O)[C@@H](Cc1c[nH]c2ccccc12)NC(=O)[C@H](N)CCCCN)C(=O)N[C@@H](C(=O)N[C@@H](C(=O)N[C@H](Cc1ccc(O)cc1)C(=O)N[C@H](Cc1ccccc1)C(=O)N[C@H](CCCNC(=N)N)C(=O)N[C@H](CCCCN)C(=O)O)C(C)C)C(C)C` [SEQID No 26, k-w-m-v-v-y-f-r-k] (H-[dK][dW][dM][dV][dV][dY][dF][dR][dK]-OH; N-terminus and C-terminus assumed) the entry was “not so well tolerated by the healthy cells”.
As for `CSCC[C@@H](NC(=O)[C@@H](Cc1c[nH]c2ccccc12)NC(=O)[C@@H](CCCCN)NC(=O)[C@H](N)CCCCN)C(=O)N[C@@H](C(=O)N[C@@H](C(=O)N[C@H](Cc1ccc(O)cc1)C(=O)N[C@H](Cc1ccccc1)C(=O)N[C@H](CCCNC(=N)N)C(=O)N[C@H](CCCCN)C(=O)N[C@H](CO)C(=O)N[C@H](CO)C(=O)N[C@H](CCCNC(=N)N)C(=O)O)C(C)C)C(C)C` [SEQID No 30, k-k-w-m-v-v-y-f-r-k-s-s-r] (H-[dK][dK][dW][dM][dV][dV][dY][dF][dR][dK][dS][dS][dR]-OH; N-terminus and C-terminus assumed), the “tolerance by healthy Lymphocyte” value in series [2] is on record as “well tolerated”; in series [2] (listed as SEQID NO 30), “not remarkably damaged”.
On to `CSCC[C@@H](NC(=O)[C@@H](Cc1c[nH]c2ccccc12)NC(=O)[C@@H](CCCCN)NC(=O)[C@@H](CCCCN)NC(=O)[C@@H](CO)NC(=O)[C@@H](CCCNC(=N)N)NC(=O)[C@H](N)CCC(=O)O)C(=O)N[C@@H](C(=O)N[C@@H](C(=O)N[C@H](Cc1ccc(O)cc1)C(=O)N[C@H](Cc1ccccc1)C(=O)N[C@H](CCCNC(=N)N)C(=O)N[C@H](CCCCN)C(=O)O)C(C)C)C(C)C` [SEQID No 31, e-r-s-k-k-w-m-v-v-y-f-r-k] (H-[dE][dR][dS][dK][dK][dW][dM][dV][dV][dY][dF][dR][dK]-OH; N-terminus and C-terminus assumed), for which the “tolerance by healthy Lymphocyte” value in series [2] is given as “not remarkably damaged”.

(Values after patent US20220160812A1, “A PHARMACEUTICALLY ACTIVE SUBSTANCE” (Cytopharma GmbH, priority 2019, published 2022).)
